Assay results taken from article PMC3469418, “New Partners in Regulation of Gene Expression: The Enhancer of Trithorax and Polycomb Corto Interacts with Methylated Ribosomal Protein L12 Via Its Chromodomain” (PLoS Genetics, 2012).
Read-outs that look alike come from different tables or passages of the source. Where a SMILES comes first, the peptide text is derived from it. Where no end group is shown, it is not given here. [ ]: non-standard residue; d: D form. Lys(Me3) = C[N+](C)(C)CCCC[C@H](N)C(=O)O; Lys(Me2) = CN(C)CCCC[C@H](N)C(=O)O

Experiments:
[1] = molecular target: T1, Corto chromodomain (GST-CortoCD) (Drosophila melanogaster, UniProt P41046); assay: Biacore real-time binding of peptides to immobilized GST-CortoCD; conditions: for kon: pH 7.4, Figure 5B, Biacore 3000, CM5 chip, peptides 1 to 10 µM in running buffer (10 mM Hepes pH7.4, 150 mM NaCl), 5 µL/min for 5 min, 1:1 Langmuir fit, read-out: CortoCD Ka
T1 construct: Over-expression of the Corto chromodomain (CortoCD); made in house
T1 sequence (P41046 127-203 limits assumed): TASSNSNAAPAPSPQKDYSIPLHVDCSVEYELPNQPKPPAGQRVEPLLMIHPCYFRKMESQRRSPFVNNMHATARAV
Description: (§1) To test whether Corto directly interacted with RPL12 lysine 3, we measured real-time binding between CortoCD and several RPL12 peptides using Biacore. GST-CortoCD and GST were immobilized on a CM5 sensor chip. Then, several RPL12 peptides [unmodified (RPL12um), methylated on lysine 3 (RPL12K3me2, RPL12K3me3), methylated on lysine 10 (RPL12K10me3) or lysine 3 mutated (RPL12K3A)] were assayed for their binding to GST-CortoCD or GST (Figure 5, Figure S3).
(D) Equilibrium dissociation constant (KD) calculated from CortoCD or HP1CD interacting with unmethylated or trimethylated histone H3 peptides. For H3K9me3, peptide concentration was increased from 0 to 1 µM. For RPL12 and H3K27me3 peptide concentration was increased from 0 to 10 µM. NB: no binding; nd: not determined.
(§2) GST or GST fusion proteins were dialyzed using a Slide-A-Lyser cassette (Thermo Scientific) in running buffer (10 mM Hepes pH7.4, 150 mM NaCl, 3 mM EDTA, 0.005% P20 surfactant) (GE Healthcare). Real-time protein interaction assays were performed using a Biacore 3000. Kinetics and binding tests were first performed on empty surfaces. Data presented here result from substraction of empty surface RU (1 to 5 depending on the experiment) from active surface RU. GST was covalently coupled to a CM5 sensor chip (GE Healthcare) via its N-terminal amino acid. The carboxymethylated dextran surface was activated by injecting a mixture of 0.2 M 1-ethyl-3-(3-dimethylaminopropyl) and 0.05 M N-hydroxysuccinimide. GST was immobilized on the chip by injecting a 30 µg.mL^−1 solution in NaAc pH5 buffer. GST-CortoCD and GST-HP1CD were immobilized by injecting a 100 µg.mL^−1 solution in the same buffer. Binding tests were performed by injecting peptides at 1 or 10 µM in running buffer at a flow rate of 5 µL.min^−1 during 5 min. Kinetic assays were performed only when the binding test was positive. […] To calculate association constants, peptides were diluted in series from 1 to 10 µM in running buffer and dilutions were injected sequentially at a flow rate of 5 µL.mn^−1 during 5 min. Dissociation kinetics were then run during 10 min to calculate dissociation constants. Between assays, the chip was regenerated with 10 mM glycine pH2.0. Kinetic constants were calculated with BIAevaluation Software (Biacore) using the Fit kinetic simultaneous ka/kd (1∶1 binding; Langmuir algorithm). RPL12 peptides were synthesized at the IFR83 Peptide synthesis facility (Table S13). Histone peptides were provided by Diagenode (H3K27me3: sp-069-050; H3K4me3: sp-003-050; H3K9me3: sp-056-050; H3K4/K9um: sp-999-050; H3K27um: sp-998-050).

[2] = molecular target: HP1 chromodomain (GST-HP1CD) (Drosophila melanogaster, UniProt P05205); assay: Biacore real-time binding of peptides to immobilized GST-HP1CD
Description: Figure 5 Preferential binding of Corto chromodomain to RPL12 trimethylated on lysine 3. (A) Biacore sensorgrams showing binding of either RPL12 unmethylated peptide (RPL12 um, left panel) or RPL12 peptide trimethylated on lysine 3 (RPL12K3me3, right panel) to CortoCD. Increasing concentrations of RPL12 um or RPL12K3me3 peptides were used [from 0 (light grey lines) to 10 µM (darker grey to black lines]. Binding (Y-axis, Response) is expressed in Resonance Units (RU) relative to time (X-axis). Note the response due to end of injection of the peptides at 300 s. (B) Kinetic parameters of interaction between CortoCD and RPL12 um, RPL12K3me2 or RPL12K3me3 peptides. Note that CortoCD interacts specifically with RPL12 trimethylated on lysine 3 (KD = 8 µM). (C) Equilibrium dissociation constant (KD) calculated for CortoCD or HP1CD in interaction with RPL12 um peptide, RPL12 methylated peptides, or RPL12K3A peptide. Note that CortoCD specifically binds to RPL12K3me3 (KD<100 µM). (D) Equilibrium dissociation constant (KD) calculated from CortoCD or HP1CD interacting with unmethylated or trimethylated histone H3 peptides. For H3K9me3, peptide concentration was increased from 0 to 1 µM. For RPL12 and H3K27me3 peptide concentration was increased from 0 to 10 µM. NB: no binding; nd: not determined. TEXT PRINTED IN THE PICTURE: (B) RpL12um: CortoCD Ka ( M^-1s^-1): 1.2; CortoCD Kd ( s^-1): 7.6.10^-4; CortoCD KD (μM): 624 | (B) RpL12K3me2: CortoCD Ka ( M^-1s^-1): 4.1; CortoCD Kd ( s^-1): 9.9.10^-4; CortoCD KD (μM): 238 | (B) RpL12K3me3: CortoCD Ka ( M^-1s^-1): 106; CortoCD Kd ( s^-1): 8.2.10^-4; CortoCD KD (μM): 8 | (C) RpL12um: CortoCD: 624; HP1CD: > 1000 | (C) RpL12K3me2: CortoCD: 238 | (C) RpL12K3me3: CortoCD: 8; HP1CD: 292 | (C) RpL12K10me3: CortoCD: NB; HP1CD: NB | (C) RpL12K3A: CortoCD: NB; HP1CD: NB | (D) H3K4me3: CortoCD: NB; HP1CD: NB | (D) H3K9me3: CortoCD: NB; HP1CD: 0.4 | (D) H3K27me3: CortoCD: NB; HP1CD: 0.7 | (D) H3um: CortoCD: NB; HP1CD: NB | (D) H3K27um: CortoCD: NB; HP1CD: NB DOUBTS OF THE COPYIST ABOUT THIS PICTURE: Panels C and D: the picture prints no measure or unit for the table values, so they are given with the row head only / Panel C, RpL12K3me2, HP1CD: the cell prints 'nd', which is not a result and is left out
To investigate whether RPL12K3me3 could bind to other chromodomains, we repeated these experiments using that of HP1 (HP1CD). GST-HP1CD was immobilized on the sensor chip and binding of either RPL12, RPL12K3me3, RPL12K10me3 or RPL12K3A was tested. None of these peptides specifically interacted with HP1CD (KD>200 µM) (Figure 5C, Figure S3). […] No binding of unmodified H3, H3K27me3, H3K9me3 or H3K4me3 peptides was observed (Figure 5D) while, as expected, the H3K9me3 peptide bound HP1CD with high affinity (KD = 0.4 µM).
GST or GST fusion proteins were dialyzed using a Slide-A-Lyser cassette (Thermo Scientific) in running buffer (10 mM Hepes pH7.4, 150 mM NaCl, 3 mM EDTA, 0.005% P20 surfactant) (GE Healthcare). Real-time protein interaction assays were performed using a Biacore 3000. Kinetics and binding tests were first performed on empty surfaces. Data presented here result from substraction of empty surface RU (1 to 5 depending on the experiment) from active surface RU. GST was covalently coupled to a CM5 sensor chip (GE Healthcare) via its N-terminal amino acid. The carboxymethylated dextran surface was activated by injecting a mixture of 0.2 M 1-ethyl-3-(3-dimethylaminopropyl) and 0.05 M N-hydroxysuccinimide. […]

GST = molecular target: T2, GST (Schistosoma japonicum, UniProt P08515); assay: Biacore real-time binding of peptides to immobilized GST (control surface); conditions: binding test, peptides at 1 or 10 µM
T2 construct: made in house
Description: as §1
as §2, with “RPL12 peptides were synthesized at the IFR83 Peptide synthesis facility (Table S13). Histone peptides were provided by Diagenode (H3K27me3: sp-069-050; H3K4me3: sp-003-050; H3K9me3: sp-056-050; H3K4/K9um: sp-999-050; H3K27um: sp-998-050).” left out

[3] = >200 µM = no specific interaction, read-out: KD for HP1CD

T2 sequence (P08515 whole entry): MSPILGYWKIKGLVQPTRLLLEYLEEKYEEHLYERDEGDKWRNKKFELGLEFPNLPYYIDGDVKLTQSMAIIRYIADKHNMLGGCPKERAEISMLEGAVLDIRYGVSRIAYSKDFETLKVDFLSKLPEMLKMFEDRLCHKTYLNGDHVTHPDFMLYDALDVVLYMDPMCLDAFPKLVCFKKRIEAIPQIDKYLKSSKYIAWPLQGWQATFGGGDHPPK
Chain of HP1 chromodomain (GST-HP1CD) (P05205 24-82 limits assumed): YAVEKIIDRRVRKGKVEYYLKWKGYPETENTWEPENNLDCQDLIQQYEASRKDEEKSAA

Compound	Kd [1]	kon [1]	Kd [2, 3]	binding of RPL12 peptides to GST (in words) (GST)	Kd ([2]; Figure 5C, RPL12 peptides 0 to 10 µM, NB = no binding, read-out: Equilibrium dissociation constant (KD), HP1CD)
CC(C)C[C@H](NC(=O)[C@H](Cc1ccc(O)cc1)NC(=O)[C@@H](NC(=O)[C@H](CC(C)C)NC(=O)[C@H](CCCCN)NC(=O)[C@@H](NC(=O)[C@H](CCC(=O)O)NC(=O)[C@@H](NC(=O)[C@@H]1CCCN1C(=O)[C@H](CC(=O)O)NC(=O)[C@H](Cc1ccccc1)NC(=O)[C@H](CCCCN(C)C)NC(=O)[C@@H]1CCCN1C(=O)[C@@H]1CCCN1)[C@@H](C)O)C(C)C)C(C)C)C(=O)N[C@@H](CCCNC(=N)N)C(=O)N[C@@H](CS)C(=O)N[C@H](C(=O)NCC(=O)NCC(=O)N[C@@H](CCC(=O)O)C(=O)N[C@H](C(=O)NCC(=O)N[C@@H](C)C(=O)O)C(C)C)C(C)C [RpL12K3me2] (H-PP[Lys(Me2)]FDPTEVKLVYLRCVGGEVGA-OH)	> 200 µM	4.1 M⁻¹ s⁻¹			
CC(C)C[C@H](NC(=O)[C@H](Cc1ccc(O)cc1)NC(=O)[C@@H](NC(=O)[C@H](CC(C)C)NC(=O)[C@H](CCCCN)NC(=O)[C@@H](NC(=O)[C@H](CCC(=O)O)NC(=O)[C@@H](NC(=O)[C@@H]1CCCN1C(=O)[C@H](CC(=O)O)NC(=O)[C@H](Cc1ccccc1)NC(=O)[C@H](CCCC[N+](C)(C)C)NC(=O)[C@@H]1CCCN1C(=O)[C@@H]1CCCN1)[C@@H](C)O)C(C)C)C(C)C)C(=O)N[C@@H](CCCNC(=N)N)C(=O)N[C@@H](CS)C(=O)N[C@H](C(=O)NCC(=O)NCC(=O)N[C@@H](CCC(=O)O)C(=O)N[C@H](C(=O)NCC(=O)N[C@@H](C)C(=O)O)C(C)C)C(C)C [RpL12K3me3] (H-PP[Lys(Me3)]FDPTEVKLVYLRCVGGEVGA-OH)	8 µM	106 M⁻¹ s⁻¹	> 200 µM		
CC(C)C[C@H](NC(=O)[C@H](Cc1ccc(O)cc1)NC(=O)[C@@H](NC(=O)[C@H](CC(C)C)NC(=O)[C@H](CCCC[N+](C)(C)C)NC(=O)[C@@H](NC(=O)[C@H](CCC(=O)O)NC(=O)[C@@H](NC(=O)[C@@H]1CCCN1C(=O)[C@H](CC(=O)O)NC(=O)[C@H](Cc1ccccc1)NC(=O)[C@H](CCCCN)NC(=O)[C@@H]1CCCN1C(=O)[C@@H]1CCCN1)[C@@H](C)O)C(C)C)C(C)C)C(=O)N[C@@H](CCCNC(=N)N)C(=O)N[C@@H](CS)C(=O)N[C@H](C(=O)NCC(=O)NCC(=O)N[C@@H](CCC(=O)O)C(=O)N[C@H](C(=O)NCC(=O)N[C@@H](C)C(=O)O)C(C)C)C(C)C [RpL12K10me3] (H-PPKFDPTEV[Lys(Me3)]LVYLRCVGGEVGA-OH)	> 200 µM		> 200 µM	None of these peptides bound GST	
H-PPAFDPTEVKLVYLRCVGGEVGA-OH [RpL12K3A]	> 200 µM		> 200 µM	None of these peptides bound GST	
PPKFDPTEVKLVYLRCVGGEVGA [RpL12um]	> 200 µM	1.2 M⁻¹ s⁻¹	> 200 µM	None of these peptides bound GST	> 1000 µM
